We go through seven compounds from PubChem BioAssay (NCI).

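Tested at 5 concentrations; 48 h exposure; 96-well plates; endpoints linearly interpolated, else capped at highest concentration. TGI: concentration producing complete growth inhibition.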

What all share (assay): NCI tumour cell line growth inhibition, 48 h
Assay [1] relates to HOP-92 NSCLC.
The test system of assay [2] is RXF 393 renal.
Assay [3] relates to SF-295 CNS.
In assay [4] the test system is U251 CNS.
For assay [5], the system named is OVCAR-8 ovarian.
The subject of assay [6] is MDA-MB-231 breast.
Assay [7] has as its system NCI-H23 lung.
The subject of assay [8] is NCI-H226 lung.
Assay [9] concerns OVCAR-5 ovarian.
Assay [10] relates to EKVX NSCLC.
In assay [11] the test system is LOX IMVI melanoma.
For assay [12], the system named is HCC-2998 colon.
Assay [13] deals with HOP-62 NSCLC.
Assay [14] relates to A549 NSCLC.
The test system of assay [15] is HCT-116 colon.
Assay [16] concerns COLO 205 colon.
The test system of assay [17] is HCT-15 colon.
Assay [18] has as its system SF-539 CNS.

With `CN1C(=O)C(C(=O)Nc2ccccn2)C2C[C@@]1(C)Oc1ccccc12` (some centres undefined), the TGI in assay [1], in assay [2], in assay [3], in [4], in assay [5] and in assay [6] was greater than 100 µM throughout. Besides, the TGI in [7], in assay [8], in assay [9], in assay [10], in assay [11] and in [12] was greater than 100 µM throughout. In addition, the TGI in assay [13], in assay [14], in assay [15], in assay [16] and in [17] was greater than 100 µM in each case.
As to `N#Cc1ccc(Oc2ccccc2)cc1C#N`, the TGI in assay [1], in assay [2], in assay [3], in [4], in assay [5] and in assay [7] was greater than 100 µM in each case. The TGI is greater than 100 µM in [8]; greater than 100 µM in assay [18]; greater than 100 µM in assay [9]; greater than 100 µM in assay [10]; 38.7 µM in [11]; greater than 100 µM in assay [12]. Moreover, the TGI in assay [13] is greater than 100 µM; in [14], greater than 100 µM; in assay [15], greater than 100 µM; in assay [16], 68.6 µM; in [17], 43.3 µM.
As for `C=CCCCN1CCCC(C)C1=S` (centres undefined), the TGI in assay [1], in [2], in assay [3], in assay [4], in assay [5] and in assay [7] was greater than 100 µM in each case. The TGI in assay [8], in assay [18], in assay [9], in assay [10], in assay [11] and in [12] was greater than 100 µM each time. For the same compound, the TGI in assay [13], in assay [14], in [15], in assay [16] and in assay [17] was greater than 100 µM each time.
As to `O=c1oc2ccccc2c(O)c1C(c1ccc(-c2ccccc2)cc1)c1c(O)c2ccccc2oc1=O`, the TGI is 48.5 µM in assay [1]; greater than 100 µM in assay [4]; 34.1 µM in [5]; 48.8 µM in assay [6]; 56.8 µM in [7]; 69 µM in assay [8]. Further, the TGI in assay [10] is greater than 100 µM; in assay [11], 44.4 µM; in [12] it was 29 µM; in assay [13], 55.4 µM; in assay [15], 79.1 µM; in assay [16] it was greater than 100 µM. This compound displayed a TGI in [17] of 40 µM.
Regarding `COC(=O)CN1C(=O)C2(C(=O)OC)OC1(c1ccc([N+](=O)[O-])cc1)C1C(=O)N(c3ccccc3)C(=O)C12` (centres undefined), the TGI in assay [2], in assay [3], in assay [4], in assay [5], in assay [6] and in assay [7] was greater than 100 µM each time. Further, the TGI in [8], in [18], in assay [9], in assay [10], in assay [11] and in assay [13] was greater than 100 µM throughout. For the same compound, the TGI in [14], in assay [15], in assay [16] and in assay [17] was greater than 100 µM each time.
`COC(=O)c1c(-c2cc(OC)c(OC)c(OC)c2)oc2ccccc2c1=O`: the TGI in [1], in assay [2], in assay [3], in [4], in assay [5] and in [7] was greater than 100 µM in each case. In addition, the TGI in assay [8], in [18], in assay [9], in assay [10], in [11] and in [12] was greater than 100 µM throughout. The TGI in assay [13], in assay [14], in [15], in assay [16] and in [17] was greater than 100 µM in each case.
In the case of `COc1ccc(OC)c(/C=C2\CCc3ccccc3C2=O)c1`, the TGI in [1] turned out to be 9.32 µM; in assay [2], 6.07 µM; in [3], 12.4 µM; in [4], 14.4 µM; in assay [5], 20.2 µM; in [7], 17.3 µM. In addition, the TGI amounted to 18.6 µM in [8]; 9.95 µM in [18]; 25.5 µM in assay [9]; 22.7 µM in assay [10]; 20.1 µM in assay [11]; 9.35 µM in assay [12]. The TGI was determined as 10.8 µM in assay [13]; 65.6 µM in assay [14]; 20.6 µM in [15]; 13.5 µM in assay [16]; 29.3 µM in [17].
